# Columns and labels:
# [1] = tested on: neonatal rat ventricular myocytes (NRVMs); assay: H2O2-induced apoptosis in cultured cardiac myocytes, flow cytometry (Sub-G1 peak); format: cell-based
# [2] = tested on: neonatal rat ventricular myocytes (NRVMs); assay: Calcium ionophore A23187-induced apoptosis in cultured cardiac myocytes, flow cytometry; format: cell-based
# Method: Cultured neonatal rat ventricular myocytes (NRVMs) were provided as cardiac myocytes used in the experiments. More specifically, hearts were extracted from 0- to 1-day-old neonatal rats (Wister, pregnant rats were purchased from Chubu Shizai). The ventricles of each heart were then treated with collagenase Type 2 (Worthington) and pancreatin (Sigma) to enzymatically isolate cardiac myocytes (collagenase 0.5 mg/ml, pancreatin 0.6 mg/ml, 4 treatments), followed by primary culture. After the enzymatically collected cells were seeded in plates and allowed to stand for 30 minutes, non-adhesive cells were collected to remove fibroblasts. The resulting cardiac myocytes were seeded at a density of 1×10^5 cells/cm^2 on 6-well plates or 75 cm^2 flasks pre-coated with 1% gelatin and then cultured at 37° C. under 5% CO2 for 48 hours in a medium consisting of DMEM/Medium 199 (4:1), 10% fetal bovine serum (FBS, Sigma), 0.1 mM bromodeoxyuridine (BrdU, Roche), penicillin (50 units/ml, GIBCO) and streptomycin (50 μg/ml, GIBCO). Culturing was carried out in a CO2 incubator under conditions of 37° C. The medium was then replaced with a serum-free medium which had been prepared from the same ingredients other than FBS and supplemented with insulin-transferrin-selenium (ITS, GIBCO). These cells were provided for experiments 24 hours after replacement with the serum-free medium. After immunocytostaining with a cardiac myocytespecific antibody (α-actinin antibody), the percentage of cardiac myocytes was measured by microscopy to confirm that 90% or more of the cells were cardiac myocytes at that stage.
# Flow cytometry analysis was performed using a Coulter EPICSXL and a software package specific for this purpose. After collection of floating cardiac myocytes from the cell culture (1×10^6 cells/well), adhered cardiac myocytes were trypsinated and collected in the same tube. […] Propidium iodide (250 μL, 25 μg/ml, Sigma) was added to and suspended well in the cell suspension, which was then allowed to stand at room temperature for 20 minutes or more and analyzed by flow cytometry. Cells showing a Sub-G1 peak in nuclear staining with propidium iodide were counted as apoptotic cells to calculate the percentage of cells showing a Sub-G1 peak relative to the total cell count measured (1×10^4 cells). The calculated percentage was defined as the percentage of apoptotic cells.
# (§1) Calcium ionophore A23187 (Sigma) was added at a final concentration of 5×10^−6 M to the cell culture of cardiac myocytes prepared as described in Example 1. The cells were cultured as described in Example 1 and analyzed to determine the percentage of apoptotic cells. […]
# [3] = tested on: cardiac myocytes; assay: Apoptosis in cardiac myocytes measured as in Examples 1 and 2, modulators of the nicorandil effect; format: cell-based, rat
# Method: Flow cytometry analysis was performed using a Coulter EPICSXL and a software package specific for this purpose. After collection of floating cardiac myocytes from the cell culture (1×10^6 cells/well), adhered cardiac myocytes were trypsinated and collected in the same tube. After centrifugation, the pellet was washed with PBS, supplemented with 70% EtOH, and then allowed to stand at room temperature for 20 minutes or more to fix the cells. After fixation, the cells were washed with PBS, re-suspended in 1 ml PBS and then reacted with 50 μL RNase (1 mg/ml, Sigma) at 37° C. for 40 minutes. After the cells were allowed to stand at room temperature (if necessary), they were washed with PBS and suspended in about 250 μL PBS to prepare a cell suspension. Propidium iodide (250 μL, 25 μg/ml, Sigma) was added to and suspended well in the cell suspension, which was then allowed to stand at room temperature for 20 minutes or more and analyzed by flow cytometry. Cells showing a Sub-G1 peak in nuclear staining with propidium iodide were counted as apoptotic cells to calculate the percentage of cells showing a Sub-G1 peak relative to the total cell count measured (1×10^4 cells). The calculated percentage was defined as the percentage of apoptotic cells.
# H2O2 (Sigma) was added at a final concentration of 1×10^−4 M to the cell culture of cardiac myocytes prepared as described above (final density: 1×10^6 cells/2 ml/well), followed by culturing for 16 hours in a CO2 incubator. The cells were collected and analyzed by flow cytometory to determine the percentage of apoptotic cells. Nicorandil was also added at a final concentration of 1×10^−4 M immediately before H2O2 addition. […]
# as §1
# Apoptosis in cardiac myocytes was measured as described in Examples 1 and 2.
# [4] = tested on: Neonatal rat cardiac myocytes; assay: JC-1 mitochondrial membrane potential, confocal microscopy, H2O2 stimulation; format: cell-based; conditions: pre-treatment with nicorandil 100 μmol/L; H2O2 200 μmol/L, 20 min
# Source text: A fluorescent probe JC-1, a detection reagent for mitochondrial membrane potential, was used to confirm that nicorandil inhibited apoptosis in cardiac myocytes stimulated by H2O2. In most cases of cellular apoptosis, cytochrome C is translocated from mitochondrial membrane to cytosol, during which loss of mitochondrial membrane potential is known. Since JC-1 is a cationic fluorescent substance, it easily enters cells and emits red fluorescence (λem=590 nm) in normal cell mitochondria through formation of polymers called J-aggregates. […] Neonatal rat cardiac myocytes were seeded at a density of 1×10^6 cells/well in 35 mm dishes with glass bottoms (IWAKI) and cultured at 37° C. for 10 minutes in serum-free DMEM/F12 medium containing 10 μg/mL JC-1 (Wako Pure Chemical Industries, Ltd.). The cells on the dishes were observed using a confocal laser scanning microscope and a 20× objective lens. Fluorescence was excited by the 488 nm line of an argon laser and the 543 nm line of a helium-neon laser.
# [5] = tested on: animal models of ischemic reperfusion; conditions: cited from earlier work
# [6] = tested on: Bad protein (phospho-Bad Ser-136); assay: Western blot analysis of Bad phosphorylation in apoptotic cardiac myocytes; format: cell-based, rat; conditions: pre-treatment with nicorandil, apoptotic cells induced by H2O2 or A23187
# Method: Both floating and adhered cardiac myocytes were collected and lysed at 4° C. for 1 hour in a lysis buffer consisting of 20 mM Tris-HCl (pH 7.5), 2 mM EDTA, 3 mM EGTA, 2 mM DTT, 250 mM sucrose, 1% Triton X-100, 10 μg/ml aprotinin, 10 μM leupeptin and 0.1 mM PMSF. The resulting cell lysate was measured for its protein level by the Bradford method, solubilized in 2× sample buffer and then boiled at 95° C. for 3 minutes. After each lane was loaded with 50 μg sample and electrophoresed on a 12.5% SDS-polyacrylamide gel, the gel was transferred to a PVDF membrane. The blots were blocked overnight in 3% BSA/0.1% Tween-20 in PBS and then detected with the following primary antibodies: rabbit polyclonal Bcl-2 antibody (Pharmingen), rabbit polyclonal Bax antibody (Pharmingen), mouse monoclonal p53 antibody (Calbiochem), mouse monoclonal poly(ADP-ribose) polymerase (PARP) antibody (Clontech) and rabbit polyclonal CPP32 antibody (Santa Cruz). […]
# Both floating and adhered cardiac myocytes were collected from 75 cm^2 flasks and lysed in 0.5 mL lysis buffer consisting of 10 mM Tris-HCl (pH 7.4), 1 mM EDTA, 1 mM EGTA (pH 8.0), 150 mM NaCl, 1% Triton X-100, 0.2 mM sodium ortho-vanadate, 0.2 mM PMSF and 0.5% NP-40. […] The total Bad content was determined by probing with a rabbit polyclonal Bad antibody (New England Biolabs). […]
compound,measurement,setting,value
CCCCCC(O)CCCC(=O)O (stereo not drawn) [5-hydroxydecanoate],effect on the anti-apoptotic effect of nicorandil (H2O2-induced apoptosis),[1]; 5-hydroxydecanoate 5×10^−4 M + nicorandil 1×10^−4 M + H2O2 1×10^−4 M,partially blocked
same,effect on the anti-apoptotic effect of nicorandil (A23187-induced apoptosis),[2]; 5-hydroxydecanoate 5×10^−4 M + nicorandil 1×10^−4 M + A23187 5×10^−6 M,completely blocked
CNc1ccc2oc(C[C@H]3O[C@@]4(CC[C@H]3C)O[C@H]([C@H](C)C(=O)c3ccc[nH]3)[C@H](C)C[C@H]4C)nc2c1C(=O)O [A23187],induction of apoptosis,[2]; A23187 5×10^−6 M,induced apoptosis significantly
"OO [H2O2, hydrogen peroxide]",percentage of apoptotic cells,"[1]; 1×10^−4 M H2O2, 16 hours, 10% or less in the absence of H2O2",more than 70%
"COC(=O)[C@@H](N)CCCNC(=N)N[N+](=O)[O-] [L-NAME, N^G-nitro L-arginine methyl ester]",effect on the anti-apoptotic effect of nicorandil,[3]; L-NAME final concentration 10^−6 M,partially blocked
COc1ccc2c(c[n+](C)c3c4cc5c(cc4ccc23)OCO5)c1OC [chelerythrine],effect on the anti-apoptotic effect of nicorandil,[3]; chelerythrine final concentration 10^−6 M,completely disappeared
COc1ccc(Cl)cc1C(=O)NCCc1ccc(S(=O)(=O)NC(=O)NC2CCCCC2)cc1 [glibenclamide],effect on the anti-apoptotic effect of nicorandil (H2O2-induced apoptosis),[1]; glibenclamide 1×10^−5 M + nicorandil + H2O2 1×10^−4 M,completely blocked
"O=C(NCCO[N+](=O)[O-])c1cccnc1 [nicorandil, N-(2-hydroxyethyl)nicotinamide nitrate ester]",inhibition of H2O2-induced apoptosis,"[1]; 1×10^−4 M nicorandil added immediately before 1×10^−4 M H2O2, 16 hours",significantly inhibited to the control level
same,inhibition at 100 µM,"[1]; Rattus norvegicus, Ventricular myocyte, pre-treatment with nicorandil 10^−4 M, read-out: inhibition of NRVM apoptosis induced by H2O2",60%
same,JC-1 green fluorescence (loss of mitochondrial membrane potential) upon H2O2 stimulation,[4],inhibit such green fluorescence
same,infarct size,[5],decrease infarct size
same,phosphorylation level of Bad,[6],increase the phosphorylation level of Bad
same,inhibition at 100 µM,"[2]; Rattus norvegicus, Ventricular myocyte, nicorandil 1×10^−4 M, A23187 5×10^−6 M, read-out: block / inhibition of apoptosis induced by calcium ionophore A23187",~50%
ZVAD,block of the pro-apoptosis effect of A23187,"[2]; ZVAD 1×10^−5 M, A23187 5×10^−6 M",around 50%
nitroprusside,effect on the anti-apoptotic effect of nicorandil,[3]; nitroprusside final concentration 10^−4 M,enhanced
